This is an account of results in patent publication US20260365696A1, “INHIBITORS OF PTP1B / NCK1 INTERACTION AND METHODS OF MAKING AND USING SAME” (Radella Pharmaceuticals LLC, priority 2023, published 2026).

The target in the first experiment is T1, SH3-2 domain of NCK1 (Homo sapiens, UniProt P16333).
T1 construct: To amplify the NCK1 SH3-2 domain, the primers; 10xHis tag with TEV site (vector pSF-OXB20-NH2-10HIS) (N, cleaved yes); made in house; host or cells: E. coli C43(DE3)
Briefly: Isothermal titration calorimetry (ITC) binding to NCK1 SH3-2 domain. The settings on record: Alanine scanning of the MD17 15-mer peptide; ITC, 25 °C, pH 8.0. An excerpt:
Human PTP1B cDNA (NM_002827) and human NCK1 cDNA (NM 006153) were obtained (Origene, MD, USA). PTP1B Primers were designed to amplify the ORFs with added homology to the cut vector (EcoRI-digested pSF-OXB20-NH2-10HIS) in the forward primer sequence. To amplify full-length PTP1B, the primers ptp1b_FL_fwd ([…]) (SEQ ID NO: 159) and ptp1b_FL_rev ([…]) (SEQ ID NO: 160) were used. To amplify truncations of PTP1B, the following primer pairs were used: ptp1b_FL-Fwd and one of Ptplb_323stop_rev (gtgcaggaggagttcgaatt[…]) (SEQ ID NO: 161), ptp1b_344stop_rev ([…]) (SEQ ID NO: 162) or ptp1b_278stop_rev([…]) (SEQ ID NO: 163). To amplify the NCK1 SH3-2 domain, the primers ncklsh32_fwd ([…]) (SEQ ID NO: 164) and ncklsh32_rev ([…]) (SEQ ID NO: 165) were used. The amplified fragments were purified using a DNA clean-up kit according to manufacturer's instructions (QIAquick PCR purification kit, Qiagen).
To produce and purify fusion proteins, a culture was inoculated with 1% of overnight-cultured inoculum. Protein expression was carried out under the conditions described above, scaled up as necessary. Cells expressing the recombinant proteins were harvested in 50 mL tubes by centrifugation and stored at −80 °C. Cells containing the expressed gene product were thawed over ice and resuspended in Extraction buffer (10 mM Tris, pH 7.4 or 10 mM Sodium Phosphate, pH 8.0; 300 mM NaCl, 1 mM DTT or TCEP; 0-10% glycerol and 1 μg lysozyme) and sonicated over ice (4 °C) for 3 min total using pulses of 5 s with 15 s intervals, using a wide probe at 15 amplitude microns (Soniprep 150, MSE). Insoluble material was removed from the lysate by centrifugation at 20K rpm for 20-60 min at 4 °C. Supernatant was filtered through a 0.22 μm PVDF filter membrane and applied to 1-2 5 mL HisTrap FF Crude (Cytiva) prepacked Ni columns and connected to an AKTA explorer. After thorough washing with binding buffer (10 mM Tris, pH 7.4 or 10 mM Sodium Phosphate, pH 8.0; 300 mM NaCl; 1 mM DTT or TCEP and 25 mM Imidazole), protein was eluted using elution buffer (10 mM Tris, pH 7.4 or 10 mM Sodium Phosphate, pH 8.0; 150-300 mM NaCl; 1 mM DTT or TCEP and 250 mM Imidazole). Fractions containing protein of interest were confirmed by SDS PAGE. Protein was diluted with GF buffer (10 mM Tris, pH 7.4 or 10 mM Sodium Phosphate, pH 8.0; 150-300 mM NaCl) and subjected to TEV protease treatment overnight at 4-10 °C. Following proteolytic digestion, HIS-tag and TEV protease were removed by filtration through a clean 5 mL HisTrap FF Crude (Cytiva) prepacked Ni column. Protein was concentrated on a PES ultrafiltration device by centrifugation at 4000 rpm at 4 °C, and protein was polished via a HiPrep S-100 26/60 (Cytiva) using GF buffer (as described above). Purified proteins were concentrated using ultrafiltration, and protein concentration was determined using ultraviolet-visible spectroscopy. The integrity and identity of all proteins were verified by mass spectrographic analysis.
Isothermal titration calorimetry (ITC) was used to determine binding affinities for peptides against the SH3-2 domain of NCK1. Experiments were conducted at 25 °C using either a MicroCal iTC200 or MicroCal PEAQ-ITC calorimeter. The buffer used for all ITC experiments was 10 mM sodium [COMPOUND LEFT OUT] mM sodium chloride (pH=8.0). A series of peptides (concentration 3-7.5 mM) were titrated in to NCK1 SH3-2 domain (concentration 0.125-0.3 mM) using the following conditions: one injection of 0.2 μL followed by 19 injections of 2 μL, 120-150 seconds spacing between injections, at 25 °C. The data were fit using analysis software provided by the manufacturer and affinity values were calculated. The best fitting occurred when the number of sites was between 0.8 and 1.2. The experiments were repeated twice for a total of three times, and the average binding affinity for each peptide was generated. […]
The substance Ac-PPPEHIPPPPAPPKR-NH2 [MH003] had a Kd of at most 300 µM.
For the substance Ac-PPPEHIPPPPRAPKR-NH2 [MH004], the Kd was at most 300 µM.
The same measure, in the same setting: the value for Ac-PPPEHIPPPPRPAKR-NH2 [MH005] was over 1000 µM; that for Ac-PPPEHIPPPPRPPAR-NH2 [MH006] was at most 300 µM.
Still for that read-out and setting: for Ac-PPPEHIPPPPRPPKA-NH2 [MH007] the value was over 1000 µM.

Still in this experiment, the particulars now being: ITC.
Regarding Ac-PPPRPPK-NH2 [MH041, Ac-PPPRPPK-NH2], the “binding to NCK1 SH3-2 domain (in words)” value is “abolished binding”.
Still for that read-out and setting: the value for Ac-PPRPPK-NH2 [MH035, Ac-PPRPPK-NH2] was “abolished binding”.

Still in this experiment, the particulars now being: Modified MD18/MD20 peptides; ITC, 25 °C, pH 8.0.
The substance Ac-PPRPPKK-NH2 [MH076, Ac-PPRPPKK-NH2] registered a Kd of over 1000 µM.

The same experiment, now with this note: N- or C-terminal extensions; ITC, 25 °C, pH 8.0; 30-mers tested one to three times.
For Ac-PPPEHIPPPPRPPKRILE-NH2 [MH077], the Kd was at most 300 µM.
The same measure, in the same setting: the value for Ac-PPPEHIPPPPRPPKRILEPH-NH2 [MH089] was at most 300 µM; that for “Ac-PPPEHIPPPPRPPKRILEPHNGKCR-NH2 [MH134]” was at most 300 µM.
As for “Ac-PPPEHIPPPPRPPKRILEPHNGKCREFFPN-NH2 [MH137]”, the Kd was at most 300 µM.
Same read-out and setting: for Ac-PPRPPKRI-NH2 [MH063] the value was at most 300 µM; for Ac-PPRPPKRIL-NH2 [MH064], at most 300 µM; for Ac-PPRPPKRILE-NH2 [MH065], at most 300 µM.

The same experiment, now with this note: Peptide truncation analysis; ITC, 25 °C, pH 8.0.
In turn, Ac-PPPPRPPKR-NH2 [MH025] registered a Kd of at most 300 µM.
Same read-out and setting: the value for Ac-PPPRPPKR-NH2 [MH024] was at most 300 µM.

Still in this experiment, the particulars now being: Sliding window peptide analysis; ITC, 25 °C, pH 8.0.
In turn, Ac-PPPPRP-NH2 [MH037, Ac-PPPPRP-NH2] came in with a Kd of over 1000 µM.
In the case of Ac-PPPRPP-NH2 [MH036, Ac-PPPRPP-NH2], the Kd is over 1000 µM.
For Ac-PPPRPPK-NH2 [MH041, Ac-PPPRPPK-NH2], the dissociation constant (Kd) is over 1000 µM.
On the same count and under the same terms, for Ac-PPRPPK-NH2 [MH035, Ac-PPRPPK-NH2] the value was over 1000 µM.

Still in this experiment, the particulars now being: substitutions at position 3 of MD18; ITC, 25 °C, pH 8.0.
The substance Ac-PPPPPKR-NH2 [MH106, Ac-PPPPPKR-NH2] displayed a Kd of at most 300 µM.
The same measure, in the same setting: the value for Ac-PPQPPKR-NH2 [MH087, Ac-PPQPPKR-NH2] was at most 300 µM; that for Ac-PPSPPKR-NH2 [MH059, Ac-PPSPPKR-NH2] was at most 300 µM; that for Ac-PPTPPKR-NH2 [MH114, Ac-PPTPPKR-NH2] was at most 300 µM.
Same read-out and setting: for Ac-PPVPPKR-NH2 [MH124, Ac-PPVPPKR-NH2] the value was at most 300 µM.

The same experiment, now with this note: substitutions at position 4 of MD18 in a 7-mer; ITC, 25 °C, pH 8.0.
Take Ac-PPRCPKR-NH2 [MH129, Ac-PPRCPKR-NH2]: the Kd was over 1000 µM.
In turn, Ac-PPRDPKR-NH2 [MH128, Ac-PPRDPKR-NH2] returned a Kd of over 1000 µM.
Same read-out and setting: for Ac-PPREPKR-NH2 [MH130, Ac-PPREPKR-NH2] the value was over 1000 µM; for Ac-PPRFPKR-NH2 [MH067, Ac-PPRFPKR-NH2], 600 to 1000 µM.
In turn, Ac-PPRGPKR-NH2 [MH093, Ac-PPRGPKR-NH2] registered a Kd of over 1000 µM.
Substance Ac-PPRHPKR-NH2 [MH132, Ac-PPRHPKR-NH2] registered a Kd of over 1000 µM.
For Ac-PPRIPKR-NH2 [MH097, Ac-PPRIPKR-NH2], the Kd was at most 300 µM.
Still for that read-out and setting: for Ac-PPRKPKR-NH2 [MH104, Ac-PPRKPKR-NH2] the value was 300 to 600 µM.
In turn, Ac-PPRLPKR-NH2 [MH101, Ac-PPRLPKR-NH2] registered a Kd of 300 to 600 µM.
The same measure, in the same setting: the value for Ac-PPRMPKR-NH2 [MH111, Ac-PPRMPKR-NH2] was over 1000 µM.
Substance Ac-PPRNPKR-NH2 [MH127, Ac-PPRNPKR-NH2] yielded a Kd of over 1000 µM.
The same measure, in the same setting: for Ac-PPRQPKR-NH2 [MH131, Ac-PPRQPKR-NH2] the value was over 1000 µM; for Ac-PPRRPKR-NH2 [MH062, Ac-PPRRPKR-NH2], 300 to 600 µM; for Ac-PPRSPKR-NH2 [MH108, Ac-PPRSPKR-NH2], over 1000 µM.
Ac-PPRTPKR-NH2 [MH115, Ac-PPRTPKR-NH2] returned a Kd of 300 to 600 µM.
Still for that read-out and setting: the value for Ac-PPRVPKR-NH2 [MH125, Ac-PPRVPKR-NH2] was at most 300 µM.
As for Ac-PPRWPKR-NH2 [MH118, Ac-PPRWPKR-NH2], the Kd was over 1000 µM.
Same read-out and setting: for Ac-PPRYPKR-NH2 [MH121, Ac-PPRYPKR-NH2] the value was 300 to 600 µM.

Still in this experiment, the particulars now being: substitutions at position 6 of MD18; ITC, 25 °C, pH 8.0.
Consider Ac-PPRPPCR-NH2 [MH054, Ac-PPRPPCR-NH2], for which the Kd was at most 300 µM.
Same read-out and setting: for Ac-PPRPPDR-NH2 [MH085, Ac-PPRPPDR-NH2] the value was 300 to 600 µM; for Ac-PPRPPER-NH2 [MH051, Ac-PPRPPER-NH2], at most 300 µM; for Ac-PPRPPFR-NH2 [MH105, Ac-PPRPPFR-NH2], 300 to 600 µM.
Same read-out and setting: for Ac-PPRPPGR-NH2 [MH094, Ac-PPRPPGR-NH2] the value was 600 to 1000 µM; for Ac-PPRPPHR-NH2 [MH049, Ac-PPRPPHR-NH2], at most 300 µM.
Regarding Ac-PPRPPIR-NH2 [MH098, Ac-PPRPPIR-NH2], the Kd is at most 300 µM.
Same read-out and setting: the value for Ac-PPRPPLR-NH2 [MH102, Ac-PPRPPLR-NH2] was at most 300 µM; that for Ac-PPRPPMR-NH2 [MH112, Ac-PPRPPMR-NH2] was at most 300 µM; that for Ac-PPRPPNR-NH2 [MH053, Ac-PPRPPNR-NH2] was at most 300 µM.
Ac-PPRPPPR-NH2 [MH107, Ac-PPRPPPR-NH2] registered a Kd of at most 300 µM.
Still for that read-out and setting: the value for Ac-PPRPPQR-NH2 [MH088, Ac-PPRPPQR-NH2] was at most 300 µM; that for Ac-PPRPPRR-NH2 [MH048, Ac-PPRPPRR-NH2] was at most 300 µM.
For Ac-PPRPPSR-NH2 [MH052, Ac-PPRPPSR-NH2], the Kd is at most 300 µM.
The same measure, in the same setting: the value for Ac-PPRPPTR-NH2 [MH116, Ac-PPRPPTR-NH2] was at most 300 µM; that for Ac-PPRPPVR-NH2 [MH126, Ac-PPRPPVR-NH2] was at most 300 µM.
On the same count and under the same terms, the value for Ac-PPRPPWR-NH2 [MH050, Ac-PPRPPWR-NH2] was at most 300 µM; that for Ac-PPRPPYR-NH2 [MH122, Ac-PPRPPYR-NH2] was at most 300 µM.

The same experiment, now with this note: substitutions at position 8 of the 8-mer MH063; ITC, 25 °C, pH 8.0; certain peptides tested one to three times.
Consider Ac-PPRPPKRA-NH2 [MH138], for which the Kd is at most 300 µM.
Substance Ac-PPRPPKRC-NH2 [MH142] displayed a Kd of at most 300 µM.
The same measure, in the same setting: for Ac-PPRPPKRD-NH2 [MH141] the value was at most 300 µM; for Ac-PPRPPKRF-NH2 [MH150], at most 300 µM.
Same read-out and setting: the value for Ac-PPRPPKRG-NH2 [MH145] was at most 300 µM.
Still for that read-out and setting: the value for Ac-PPRPPKRH-NH2 [MH146] was at most 300 µM; that for Ac-PPRPPKRI-NH2 [MH063] was at most 300 µM; that for Ac-PPRPPKRK-NH2 [MH148] was at most 300 µM.
As for Ac-PPRPPKRL-NH2 [MH147], the Kd is at most 300 µM.
Substance Ac-PPRPPKRM-NH2 [MH149] returned a Kd of at most 300 µM.
Still for that read-out and setting: the value for Ac-PPRPPKRN-NH2 [MH140] was at most 300 µM.
Still for that read-out and setting: for Ac-PPRPPKRP-NH2 [MH151] the value was 300 to 600 µM.
Same read-out and setting: for Ac-PPRPPKRR-NH2 [MH139] the value was at most 300 µM; for Ac-PPRPPKRS-NH2 [MH152], at most 300 µM; for Ac-PPRPPKRW-NH2 [MH154], at most 300 µM.
With Ac-PPRPPKRY-NH2 [MH155], the Kd was at most 300 µM.
